# Results published in patent US20210261570A1, “ANTIBIOTIC RESISTANCE BREAKERS” (KING'S COLLEGE LONDON, priority 2017, published 2021).
# “Also recorded” adds a separate entry of the source. Counter-ions that a name gives are not always drawn. Like-named read-outs stand apart in the source and are kept apart here.
# Key:
# M6 = assay: MIC, microdilution broth method; format: cell-based
# Ab17978 = assay: MIC, microdilution broth method; format: cell-based
# EC12923 = assay: MIC, microdilution broth method; format: cell-based
# EMRSA16 = assay: MIC, microdilution broth method; format: cell-based, Staphylococcus aureus
# EMRSA15 = assay: MIC, microdilution broth method; format: cell-based, Staphylococcus aureus
# VSE775 = assay: MIC, microdilution broth method; format: cell-based, E. faecalis
# KP13368 = assay: MIC, microdilution broth method; format: cell-based; conditions: in µg/mL
# PA01 = assay: MIC, microdilution broth method; format: cell-based, Pseudomonas aeruginosa
# VRE12201 = assay: MIC, microdilution broth method; format: cell-based, E. faecalis
# S. aureus SA4 = assay: MIC, extended Gram-positive panel; format: cell-based; conditions: for MIC: S. aureus SA4
# E. faecium EF2 = assay: MIC, extended Gram-positive panel; format: cell-based; conditions: for MIC: E. faecium EF2, in µg/mL
# S. aureus SA7 = assay: MIC, extended Gram-positive panel; format: cell-based; conditions: for MIC: S. aureus SA7
# S. aureus SA3 = assay: MIC, extended Gram-positive panel; format: cell-based; conditions: for MIC: S. aureus SA3
# S. aureus SA10 = assay: MIC, extended Gram-positive panel; format: cell-based; conditions: for MIC: S. aureus SA10, in µg/mL
# S. aureus SA1 = format: cell-based; conditions: for MIC: S. aureus SA1
# S. aureus SA6 = assay: MIC, extended Gram-positive panel; format: cell-based; conditions: for MIC: S. aureus SA6
# E. faecalis EF1 = assay: MIC, extended Gram-positive panel; format: cell-based; conditions: for MIC: E. faecalis EF1
# S. haemolyticus SH1 = assay: MIC, extended Gram-positive panel; format: cell-based; conditions: for MIC: S. haemolyticus SH1
# S. aureus SA9 = assay: MIC, extended Gram-positive panel; format: cell-based; conditions: for MIC: S. aureus SA9
# S. aureus SA2 = format: cell-based; conditions: for MIC: S. aureus SA2, in µg/mL
# S. aureus SA5 = assay: MIC, extended Gram-positive panel; format: cell-based; conditions: for MIC: S. aureus SA5
# S. aureus SA8 = assay: MIC, extended Gram-positive panel; format: cell-based; conditions: for MIC: S. aureus SA8
# AYE = assay: MIC, microdilution broth method; format: cell-based, Acinetobacter baumannii; conditions: Normal (without PMBN), in µg/mL
# MSSA9144 = assay: MIC, microdilution broth method; format: cell-based, S. aureus
# S. epidermidis SE1 = assay: MIC, extended Gram-positive panel; format: cell-based; conditions: for MIC: S. epidermidis SE1, in µg/mL
# [1] = test system: multidrug resistant strains; assay: Reserpine growth assay in several multidrug resistant strains; format: cell-based; conditions: FIG. 27
# Experimental: Reserpine was added at a final concentration of 10 g/mL (made up at 40 μg/mL in TSB, 50 μL per well). The bacteria were added at an OD of 0.01 in TSB (100 μL/well). The plate was a normal clear plate as used for MICs. OD was read every 30 minutes for 9 hours (the literature states 7 hours, but this is strain-dependent). Blanks of TSB and water were added to ensure no infections were present.
# MSSA 9144 strain = assay: Reserpine assay; format: cell-based, S. aureus; conditions: compound at 0.25×MIC with reserpine
# Experimental: (§1) A simple plate based method was used as described by Beyer et al. (24). […] Reserpine was added at a final concentration of 10 µg/mL (made up at 40 μg/mL in TSB, 50 μL per well). The bacteria were added at an OD of 0.01 in TSB (100 μL/well). The plate was a normal clear plate as used for MICs. OD was read every 30 minutes for 9 hours (the literature states 7 hours, but this is strain-dependent). Blanks of TSB and water were added to ensure no infections were present.
# (§2) The mechanism of inhibition for reserpine involves direct binding to and competitive inhibition of the efflux pump during drug/H^+ antiport. This assay was validated as a method for testing active efflux of fluoroquinolones in Staphylococcus strains by Beyer et al. (24).
# EMRSA 15 strain = assay: Reserpine assay; format: cell-based, S. aureus; conditions: compound at 0.25×MIC with reserpine
# Experimental: as §1, §2
# VRE12204 = assay: MIC, microdilution broth method; format: cell-based, E. faecium
# [2] = EC12923, Normal (without PMBN), in µg/mL
smiles,measurement,setting,value
C[C@H]1COc2c(N3CCN(c4ccncc4)CC3)c(F)cc3c(=O)c(C(=O)O)cn1c23 [ML-83-019],MIC,"M6; M6, Normal (without PMBN), in µg/mL",64
same,MIC,"Ab17978; Ab17978, Normal (without PMBN)",64 µg/mL
same,MIC,EC12923; [2],32
CCn1cc(C(=O)O)c(=O)c2cc(F)c(N3CCN(Cc4cccc5ccccc45)CC3)nc21 [ML-77-025],fold potentiation of MIC,"EMRSA16; EMRSA16, vs parent fluoroquinolone",64-128 fold
same,fold potentiation of MIC,"EMRSA15; EMRSA15, vs parent fluoroquinolone",64-128 fold
"Cc1cc(N2CCN(c3c(F)cc4c(=O)c(C(=O)O)cn5c4c3OC[C@@H]5C)CC2)nc(C(C)C)n1 [ML-83-012, (S)-9-fluoro-10-(4-(2-isopropyl-6-methylpyrimidin-4-yl)piperazin-1-yl)-3-methyl-7-oxo-2,3-dihydro-7H-[1,4]oxazino[2,3,4-ij]quinoline-6-carboxylic Acid Hydrochloride]",MIC,VSE775; Enterococcus faecalis,0.5 µg/mL
same,MIC,"VSE775; VSE775, Gram-positive",1 µg/mL
same,MIC,KP13368; Gram-negative,64
same,MIC,"PA01; Pseudomonas aeruginosa, Pseudomonas aeruginosa (PA01)",32 µg/mL
same,MIC,"EMRSA16; EMRSA16, Gram-positive",16 µg/mL
same,MIC,"EMRSA16; Staphylococcus aureus, Staphylococcus aureus (EMRSA16)",2 µg/mL
same,MIC,"VRE12201; Enterococcus faecalis, Enterococcus (VRE12201)",≤ 0.125 µg/mL
same,MIC,"VRE12201; VRE12201, Gram-positive, in µg/mL",0.5-1
same,MIC,"M6; Klebsiella pneumoniae, Klebsiella pneumoniae (M6)",16 µg/mL
same,MIC,"M6; M6, Gram-negative, in µg/mL",16
same,MIC,"Ab17978; Acinetobacter baumannii, Acinetobacter baumannii (AB17978)",8 µg/mL
same,MIC,"EMRSA15; EMRSA15, Gram-positive, in µg/mL",16
same,MIC,EMRSA15; Staphylococcus aureus,2 µg/mL
same,MIC,"EC12923; Escherichia coli, Escherichia coli (EC12923)",4 µg/mL
O=C(O)c1cn(C2CC2)c2cc(N3CCN(Cc4cccc5ccccc45)CC3)c(F)cc2c1=O [ML-77-005],MIC,S. aureus SA4,2 µg/mL
same,MIC,E. faecium EF2,2
same,MIC,S. aureus SA7,2 µg/mL
same,MIC,S. aureus SA3,2 µg/mL
same,MIC,S. aureus SA10,2
same,MIC,S. aureus SA1,2 µg/mL
same,MIC,S. aureus SA6,2 µg/mL
same,MIC,E. faecalis EF1,2 µg/mL
same,MIC,S. haemolyticus SH1,4 µg/mL
same,MIC,S. aureus SA9,2 µg/mL
same,MIC,S. aureus SA2,0.5
same,MIC,S. aureus SA5,2 µg/mL
same,MIC,S. aureus SA8,2 µg/mL
"C[C@H]1COc2c(N3CCC(n4cccn4)CC3)c(F)cc3c(=O)c(C(=O)O)cn1c23 [ML-83-041, (S)-10-(4-(1H-pyrazol-1-yl)piperidin-1-yl)-9-fluoro-3-methyl-7-oxo-2,3-dihydro-7H-[1,4]oxazino[2,3,4-ij]quinoline-6-carboxylic Acid]",MIC,KP13368; Normal (without PMBN),16-32
same,MIC,AYE,64-128
same,MIC,EC12923; [2],1-2
CCn1cc(C(=O)O)c(=O)c2cc(F)c(N3CCN(Cc4ccc(F)c5ccccc45)CC3)cc21 [ML-77-49],MIC,VSE775; VSE775,8 µg/mL
same,MIC,EMRSA16; EMRSA16,8 µg/mL
same,MIC,"VRE12201; VRE12201, in µg/mL",16
same,MIC,"EMRSA15; EMRSA15, in µg/mL",8
same,MIC,MSSA9144,8 µg/mL
CCn1cc(C(=O)O)c(=O)c2cc(F)c(N3CCNCC3)cc21 [NOR],MIC,S. aureus SA4,64 µg/mL
same,MIC,S. aureus SA3,64 µg/mL
same,MIC,S. aureus SA2,8-64
same,MIC,S. epidermidis SE1,1-4
CCn1cc(C(=O)O)c(=O)c2cc(F)c(N3CCN(Cc4ccc(S(=O)(=O)NCCc5c[nH]c6ccccc56)cc4)CC3)cc21 [ML-77-146],MIC +PMBN,"PA01; PA01, +PMBN",0.25
same,MIC +PMBN,"M6; M6, +PMBN",28
same,MIC +PMBN,"Ab17978; Ab17978, +PMBN",4
Cc1cc(C)nc(N[C@@H]2CCN(c3c(F)cc4c(=O)c(C(=O)O)cn5c4c3OC[C@@H]5C)C2)n1 [KSN-BL7],efflux from the bacteria (reserpine growth assay),[1],reduced efflux
CCn1cc(C(=O)O)c(=O)c2cc(F)c(N3CCN(Cc4cccc5ccccc45)CC3)cc21 [ML-77-021],MIC,S. aureus SA4,2 µg/mL
same,Fold decrease,"S. aureus SA4; SA4, MIC of ML-77-005 vs CIP, of ML-77-021 vs NOR",32
same,MIC,E. faecium EF2,2-4
same,Fold decrease,"E. faecium EF2; EF2, MIC of ML-77-005 vs CIP, of ML-77-021 vs NOR",≥32
same,MIC,S. aureus SA7,2 µg/mL
same,Fold decrease,"S. aureus SA7; SA7, MIC of ML-77-005 vs CIP, of ML-77-021 vs NOR",≥64
same,MIC,S. aureus SA3,2 µg/mL
same,Fold decrease,"S. aureus SA3; SA3, MIC of ML-77-005 vs CIP, of ML-77-021 vs NOR",32
same,MIC,S. aureus SA10,2
same,Fold decrease,"S. aureus SA10; SA10, MIC of ML-77-005 vs CIP, of ML-77-021 vs NOR",64
same,MIC,S. aureus SA1,4 µg/mL
same,Fold decrease,"S. aureus SA1; SA1, MIC of ML-77-005 vs CIP, of ML-77-021 vs NOR",≥32
same,MIC,S. aureus SA6,2 µg/mL
same,Fold decrease,"S. aureus SA6; SA6, MIC of ML-77-005 vs CIP, of ML-77-021 vs NOR",≥64
same,MIC,E. faecalis EF1,4 µg/mL
same,Fold decrease,"E. faecalis EF1; EF1, MIC of ML-77-005 vs CIP, of ML-77-021 vs NOR",≥32
same,MIC,S. haemolyticus SH1,4 µg/mL
same,Fold decrease,"S. haemolyticus SH1; SH1, MIC of ML-77-005 vs CIP, of ML-77-021 vs NOR",32
same,MIC,S. aureus SA9,2 µg/mL
same,Fold decrease,"S. aureus SA9; SA9, MIC of ML-77-005 vs CIP, of ML-77-021 vs NOR",≥64
same,MIC,S. aureus SA2,1
same,Fold decrease,"S. aureus SA2; SA2, MIC of ML-77-005 vs CIP, of ML-77-021 vs NOR",8-64
same,MIC,S. aureus SA5,2 µg/mL
same,Fold decrease,"S. aureus SA5; SA5, MIC of ML-77-005 vs CIP, of ML-77-021 vs NOR",≥64
same,efflux by the strain (reserpine assay),MSSA 9144 strain,cannot be effluxed; also recorded: not effluxed
same,efflux by the strain (reserpine assay),EMRSA 15 strain,cannot be effluxed
same,efflux by the strain (reserpine assay),EMRSA 15 strain; listed as napthyl-linked norfloxacin,not effluxed
same,MIC,S. epidermidis SE1,1
same,Fold decrease,"S. epidermidis SE1; SE1, MIC of ML-77-005 vs CIP, of ML-77-021 vs NOR",1-4
same,MIC,S. aureus SA8,2 µg/mL
same,Fold decrease,"S. aureus SA8; SA8, MIC of ML-77-005 vs CIP, of ML-77-021 vs NOR",64
C[C@H]1COc2c(N3CC[C@@H](Nc4cnccn4)C3)c(F)cc3c(=O)c(C(=O)O)cn1c23 [KSN-BL1],MIC,"M6; Klebsiella pneumoniae (M6), read-out: MIC",0.5 µg/mL
CCn1cc(C(=O)O)c(=O)c2cc(F)c(N3CCN(Cc4ccc5ccccc5c4)CC3)cc21 [ML-77-31],MIC,VSE775; VSE775,4 µg/mL
same,MIC,EMRSA16; EMRSA16,4 µg/mL
same,MIC,VRE12204,2 µg/mL
same,MIC,"VRE12201; VRE12201, in µg/mL",4
same,MIC,"M6; M6, in µg/mL",16-32
same,MIC,"EMRSA15; EMRSA15, in µg/mL",4
same,MIC,MSSA9144,0.25 µg/mL
"CCn1cc(C(=O)O)c(=O)c2cc(F)c(N3CCNCC3)cc21 [Norfloxacin, norfloxacin, reference compound]",efflux by the strain (reserpine assay),MSSA 9144 strain,effluxed
same,efflux by the strain (reserpine assay),EMRSA 15 strain,effluxed
"C[C@H]1COc2c(N3CCN(c4ccncn4)CC3)c(F)cc3c(=O)c(C(=O)O)cn1c23 [ML-83-001, (S)-9-fluoro-3-methyl-7-oxo-10-(4-(pyrimidin-4-yl)piperazin-1-yl)-2,3-dihydro-7H-[1,4]oxazino[2,3,4-ij]quinoline-6-carboxylic Acid]",MIC,EC12923; [2],1-4
"O=C(O)c1cn(C2CC2)c2cc(N3CCNCC3)c(F)cc2c1=O [Ciprofloxacin, ciprofloxacin, reference compound]",MIC,S. epidermidis SE1,0.5-1
